Results taken from publication PMC11059541 (Tuberculosis (Edinburgh, Scotland), 2011).
pIC50: −log10 of the molar value.

Columns and labels:
[1] = target: MtMetAP1a (Mycobacterium tuberculosis, UniProt P9WK21); assay: MetAP enzyme inhibition assay; assay type: biochemical; details: for selectivity for both MtMetAPs over human MetAPs: MtMetAP1a and MtMetAP1c relative to HsMetAP1 and HsMetAP2, from IC50 values
[2] = target: MtMetAP1c (Mycobacterium tuberculosis, UniProt P9WK19); assay: MetAP enzyme inhibition assay; assay type: biochemical
MtMetAP1c, sequence (P9WK19 whole entry): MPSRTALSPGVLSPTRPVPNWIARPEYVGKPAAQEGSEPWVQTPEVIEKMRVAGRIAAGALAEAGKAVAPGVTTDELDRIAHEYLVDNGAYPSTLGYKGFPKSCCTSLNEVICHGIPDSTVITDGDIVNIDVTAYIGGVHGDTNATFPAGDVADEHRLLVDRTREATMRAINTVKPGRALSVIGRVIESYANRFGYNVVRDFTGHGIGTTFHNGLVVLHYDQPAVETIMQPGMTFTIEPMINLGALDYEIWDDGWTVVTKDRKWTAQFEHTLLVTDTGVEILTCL

[3] = tested on: M. tuberculosis H37Rv; assay: Minimum Inhibitory Concentration in replicating M. tuberculosis; assay type: cell-based, Mycobacterium tuberculosis; details: ratio of M.I.C. values
[4] = tested on: aged non-growing M. tuberculosis H37Ra; assay: Activity on aged non-growing M. tuberculosis; details: 2 month old H37Ra culture, acid 7H9 pH5.5, 1% oxygen

MtMetAP1a, sequence (P9WK21 whole entry): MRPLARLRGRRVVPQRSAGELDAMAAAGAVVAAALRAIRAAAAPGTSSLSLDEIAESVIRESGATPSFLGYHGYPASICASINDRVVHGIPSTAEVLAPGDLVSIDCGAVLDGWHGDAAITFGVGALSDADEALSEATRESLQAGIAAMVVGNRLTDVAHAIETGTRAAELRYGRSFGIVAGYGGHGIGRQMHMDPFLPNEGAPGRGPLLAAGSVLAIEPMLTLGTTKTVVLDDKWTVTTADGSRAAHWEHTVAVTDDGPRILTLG

Row | Structure (SMILES) | pIC50 [1] | selectivity for both MtMetAPs over human MetAPs [1] | pIC50 [2] | potency in replicating M. tuberculosis culture relative to CQ [3] | M.I.C. Aged non-growing M. tuberculosis [4]
1 | Oc1c(I)cc(Cl)c2cccnc12 [Clioquinol (CQ), clioquinol, reference compound] | 5.03 | less than 10 folds | 4.95 | – | –
2 | Oc1c(Br)cc(Cl)c2cccnc12 [CLBQ14] | 5.26 | greater than 19 folds | 5.31 | two-fold | 0.65 to 1.62 µg/mL
